Data reported in patent publication US20230321062A1, “COMBINATION THERAPIES” (Mirati Therapeutics, Inc., priority 2020, published 2023).
Like-named read-outs stand apart in the source and are kept apart here. Square brackets hold non-standard residues; d marks the D form. Peptide text beside a SMILES is read from it. * marks the point of attachment. Dolaproine = CO[C@@H]([C@@H]1CCCN1)[C@@H](C)C(=O)O; Dil = CC[C@H](C)[C@H](NC)[C@@H](CC(=O)O)OC; X1 = C[C@@H](N*)[C@@H](O)c1ccccc1; NMeV = CN[C@H](C(=O)O)C(C)C

How the values were obtained:
[1] = cited from earlier work; for steady-state concentrations reached after: 1.25 mg/kg Q3W regimen; for exposure (AUC) in mild, moderate or severe renal impairment compared to normal renal function: 1.25 mg/kg enfortumab; for elimination half-life / mean clearance (CL): after enfortumab dosing; for mean clearance (CL): patients
hERG = hERG (Homo sapiens, UniProt Q12809); assay: hERG assay (in vitro); assay type: cell-based; conditions: read-out: IC50 on the potassium current
in vivo = assay: in vivo; parameters: species or system dogs; conditions: dog
[2] = neurological functional observation battery and respiratory evaluations; assay type: in vivo; conditions: rats, doses up to 25 mg/kg
Caco-2 cell lines = assay: bidirectional permeability study with Caco-2 cell lines; assay type: in vitro ADME; conditions: Caco-2 bidirectional
P-glycoprotein (P-gp) = target: T1, P-glycoprotein (P-gp) (Homo sapiens, UniProt P08183); assay: P-gp substrate assessment in Caco-2 bidirectional permeability study; assay type: in vitro ADME
T1 construct: In a bidirectional permeability study with Caco-2 cell lines; endogenous in cells; host or cells: Caco-2

[3] = target: T2, Breast Cancer Resistance Protein (BCRP) (Homo sapiens, UniProt Q9UNQ0); assay: BCRP substrate assessment in Caco-2 bidirectional permeability study; assay type: in vitro ADME
T2 construct: In a bidirectional permeability study with Caco-2 cell lines; endogenous in cells; host or cells: Caco-2

P-gp = target: T3, P-gp (Homo sapiens, UniProt P08183); assay type: in vitro ADME
T3 construct: In a bidirectional permeability study with Caco-2 cell lines; endogenous in cells; host or cells: Caco-2

BCRP = target: T4, BCRP (Homo sapiens, UniProt Q9UNQ0); assay type: in vitro ADME
T4 construct: In a bidirectional permeability study with Caco-2 cell lines; endogenous in cells; host or cells: Caco-2

human plasma proteins = assay type: in vitro ADME
cytochrome P-450 = assay type: in vitro ADME; conditions: human
CYP2C8 = CYP2C8 (Homo sapiens, UniProt P10632); assay: direct CYP inhibition; assay type: in vitro ADME
CYP2C9 = CYP2C9 (Homo sapiens, UniProt P11712); assay: direct CYP inhibition; assay type: in vitro ADME
CYP2C19 = CYP2C19 (Homo sapiens, UniProt P33261); assay: direct CYP inhibition; assay type: in vitro ADME
CYP2D6 = CYP2D6 (Homo sapiens, UniProt P10635); assay: direct CYP inhibition; assay type: in vitro ADME
CYP2B6 = CYP2B6 (Homo sapiens, UniProt P20813); assay: direct CYP inhibition; assay type: in vitro ADME
CYP1A2 = CYP1A2 (Homo sapiens, UniProt P05177); assay: direct CYP inhibition; assay type: in vitro ADME
CYP2A6 = CYP2A6 (Homo sapiens, UniProt P11509); assay: direct CYP inhibition; assay type: in vitro ADME
CYP2E1 = CYP2E1 (Homo sapiens, UniProt P05181); assay: direct CYP inhibition; assay type: in vitro ADME
CYP enzymes = assay: time- or metabolism-dependent CYP inhibition; assay type: in vitro ADME
PD-L1 on tumor cells = assay: PD-L1 expression on tumor cells in vitro and in vivo; assay type: cell-based
Source text: (§1) Receptor tyrosine kinases (RTKs) are key regulators of signaling pathways leading to cell growth, survival, and migration. These kinases are dysregulated in many cancers through overexpression, genetic alteration or co-expression with high affinity ligands. Multiple sitravatinib RTK targets are genetically altered in a variety of cancers and act as oncogenic drivers, promoting cancer development and progression.

[4] = tested on: systemic/spleen T lymphocytes and MDSCs; assay: pilot studies in syngeneic mouse tumor models (immune cells); assay type: in vivo
Source text: as §1

[5] = pharmacokinetics after single dose of sitravatinib free base capsules; assay type: in vivo
[6] = tested on: MET, Axl, MERTK, VEGFR family, PDGFR family, KIT, FLT3, Trk family, RET, DDR2, and selected Eph family members
[7] = tested on: RET, CBL, CHR4q12, DDR and Trk; conditions: cited from earlier work
[8] = tested on: human tumor xenograft models; assay: human tumor xenograft models; conditions: mice, broad spectrum of models
target RTKs [9] = assay: cell-based assays of phosphorylation and kinase dependent function
target RTKs [10] = assay: oncogenic functions: MET-dependent cell viability and migration, endothelial tube formation and angiogenesis; conditions: endothelial tube formation, angiogenesis
Urothelial Carcinoma [11] = conditions: EV-201; cited from earlier work
Urothelial Carcinoma [12] = conditions: cited from earlier work
Nectin-4 = target: T5, Nectin-4 (Homo sapiens, UniProt Q96NY8); conditions: cited from earlier work
T5 construct: host or cells: cells that express Nectin-4
T5 sequence (Q96NY8 32-510): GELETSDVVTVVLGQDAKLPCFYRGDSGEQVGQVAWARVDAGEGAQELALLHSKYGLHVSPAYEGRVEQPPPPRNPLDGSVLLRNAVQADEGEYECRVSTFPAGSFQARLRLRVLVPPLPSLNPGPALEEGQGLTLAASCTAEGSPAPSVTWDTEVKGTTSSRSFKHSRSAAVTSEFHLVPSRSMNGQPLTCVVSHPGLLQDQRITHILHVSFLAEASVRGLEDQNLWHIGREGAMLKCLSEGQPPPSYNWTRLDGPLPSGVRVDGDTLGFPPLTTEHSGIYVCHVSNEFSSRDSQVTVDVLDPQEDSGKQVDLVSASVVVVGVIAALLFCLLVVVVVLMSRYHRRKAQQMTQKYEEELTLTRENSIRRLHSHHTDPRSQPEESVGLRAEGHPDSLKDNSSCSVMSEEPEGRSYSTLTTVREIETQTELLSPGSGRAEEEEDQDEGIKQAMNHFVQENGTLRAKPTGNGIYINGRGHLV

[13] = cited from earlier work
Urothelial Carcinoma [14] = conditions: cited from earlier work; remark: listed apart in the source
Urothelial Carcinoma [15] = conditions: cited from earlier work; remark: listed apart in the source
[16] = KEYNOTE-052, overall population
[17] = KEYNOTE-052, patients with CPS ≥10

Chain of CYP2B6 (P20813 whole entry): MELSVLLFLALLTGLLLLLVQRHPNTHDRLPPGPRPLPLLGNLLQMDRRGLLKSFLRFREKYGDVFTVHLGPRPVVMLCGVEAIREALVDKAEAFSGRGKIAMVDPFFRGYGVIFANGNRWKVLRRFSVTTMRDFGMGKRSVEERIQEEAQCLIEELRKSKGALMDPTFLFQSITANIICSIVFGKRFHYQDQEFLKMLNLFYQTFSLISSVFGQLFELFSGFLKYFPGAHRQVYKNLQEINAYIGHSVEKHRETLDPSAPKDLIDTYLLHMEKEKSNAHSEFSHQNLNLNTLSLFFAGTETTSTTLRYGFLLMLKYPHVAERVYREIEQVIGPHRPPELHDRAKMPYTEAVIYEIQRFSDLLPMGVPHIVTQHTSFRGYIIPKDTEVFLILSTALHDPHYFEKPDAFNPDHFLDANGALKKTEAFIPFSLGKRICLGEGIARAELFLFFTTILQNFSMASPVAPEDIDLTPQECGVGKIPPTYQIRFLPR
Chain of CYP2A6 (P11509 whole entry): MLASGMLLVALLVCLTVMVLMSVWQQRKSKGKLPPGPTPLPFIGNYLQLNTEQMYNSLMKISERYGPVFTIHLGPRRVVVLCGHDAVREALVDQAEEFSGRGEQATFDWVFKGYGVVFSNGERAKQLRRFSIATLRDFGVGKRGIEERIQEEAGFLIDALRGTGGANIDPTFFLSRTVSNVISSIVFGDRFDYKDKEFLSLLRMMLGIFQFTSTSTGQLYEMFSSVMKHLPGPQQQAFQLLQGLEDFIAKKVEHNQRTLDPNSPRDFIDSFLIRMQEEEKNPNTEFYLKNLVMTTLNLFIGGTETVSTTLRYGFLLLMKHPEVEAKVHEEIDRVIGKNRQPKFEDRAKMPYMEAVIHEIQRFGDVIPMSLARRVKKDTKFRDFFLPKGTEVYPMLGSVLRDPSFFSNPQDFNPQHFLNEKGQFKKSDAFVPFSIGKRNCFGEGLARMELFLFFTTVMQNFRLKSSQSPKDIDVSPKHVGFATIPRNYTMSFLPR
T2 sequence (Q9UNQ0 whole entry): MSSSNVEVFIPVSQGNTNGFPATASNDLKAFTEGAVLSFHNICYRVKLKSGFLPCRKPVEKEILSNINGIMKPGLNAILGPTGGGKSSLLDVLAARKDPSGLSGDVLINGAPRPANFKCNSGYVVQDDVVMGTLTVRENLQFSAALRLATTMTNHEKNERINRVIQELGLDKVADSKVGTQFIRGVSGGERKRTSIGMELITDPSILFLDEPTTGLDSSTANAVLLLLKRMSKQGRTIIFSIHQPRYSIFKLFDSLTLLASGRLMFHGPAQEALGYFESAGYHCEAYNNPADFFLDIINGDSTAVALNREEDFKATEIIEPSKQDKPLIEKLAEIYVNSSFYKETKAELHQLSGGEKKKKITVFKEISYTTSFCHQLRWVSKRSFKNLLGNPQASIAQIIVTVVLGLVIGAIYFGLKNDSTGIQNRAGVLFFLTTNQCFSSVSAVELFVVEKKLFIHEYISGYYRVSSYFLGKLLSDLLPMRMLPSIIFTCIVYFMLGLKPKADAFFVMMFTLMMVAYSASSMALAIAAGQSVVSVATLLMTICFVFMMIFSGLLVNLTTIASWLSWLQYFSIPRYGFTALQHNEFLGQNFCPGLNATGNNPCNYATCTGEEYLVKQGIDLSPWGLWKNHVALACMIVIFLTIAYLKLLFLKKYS
T4 sequence (Q9UNQ0 whole entry): as above
Chain of CYP2D6 (P10635 whole entry): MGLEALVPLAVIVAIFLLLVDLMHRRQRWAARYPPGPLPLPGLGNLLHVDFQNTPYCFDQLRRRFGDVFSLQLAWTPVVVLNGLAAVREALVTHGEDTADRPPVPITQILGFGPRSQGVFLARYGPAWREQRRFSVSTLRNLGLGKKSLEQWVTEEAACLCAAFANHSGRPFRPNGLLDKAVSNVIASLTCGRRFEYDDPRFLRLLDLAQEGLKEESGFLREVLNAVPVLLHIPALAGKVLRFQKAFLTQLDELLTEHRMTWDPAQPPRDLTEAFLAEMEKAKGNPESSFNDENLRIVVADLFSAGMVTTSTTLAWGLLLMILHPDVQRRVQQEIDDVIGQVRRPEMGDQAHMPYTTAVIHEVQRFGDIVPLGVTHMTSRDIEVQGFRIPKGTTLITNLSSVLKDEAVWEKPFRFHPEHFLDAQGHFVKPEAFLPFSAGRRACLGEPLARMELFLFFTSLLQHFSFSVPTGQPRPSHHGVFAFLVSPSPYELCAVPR
Chain of CYP2C9 (P11712 whole entry): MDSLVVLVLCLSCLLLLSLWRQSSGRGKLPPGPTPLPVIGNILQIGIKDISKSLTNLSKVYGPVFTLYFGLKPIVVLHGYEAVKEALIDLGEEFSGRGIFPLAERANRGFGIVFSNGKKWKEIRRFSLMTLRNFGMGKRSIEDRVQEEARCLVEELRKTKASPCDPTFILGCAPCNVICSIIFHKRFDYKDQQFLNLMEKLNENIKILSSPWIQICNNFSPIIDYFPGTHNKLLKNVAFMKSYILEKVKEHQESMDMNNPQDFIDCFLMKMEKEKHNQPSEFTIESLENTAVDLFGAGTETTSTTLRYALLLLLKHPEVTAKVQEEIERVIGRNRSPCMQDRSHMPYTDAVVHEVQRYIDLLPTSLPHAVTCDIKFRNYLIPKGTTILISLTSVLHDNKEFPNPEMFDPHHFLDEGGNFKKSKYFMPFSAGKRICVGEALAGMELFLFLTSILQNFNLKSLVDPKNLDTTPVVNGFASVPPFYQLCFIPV
Chain of CYP2C8 (P10632 whole entry): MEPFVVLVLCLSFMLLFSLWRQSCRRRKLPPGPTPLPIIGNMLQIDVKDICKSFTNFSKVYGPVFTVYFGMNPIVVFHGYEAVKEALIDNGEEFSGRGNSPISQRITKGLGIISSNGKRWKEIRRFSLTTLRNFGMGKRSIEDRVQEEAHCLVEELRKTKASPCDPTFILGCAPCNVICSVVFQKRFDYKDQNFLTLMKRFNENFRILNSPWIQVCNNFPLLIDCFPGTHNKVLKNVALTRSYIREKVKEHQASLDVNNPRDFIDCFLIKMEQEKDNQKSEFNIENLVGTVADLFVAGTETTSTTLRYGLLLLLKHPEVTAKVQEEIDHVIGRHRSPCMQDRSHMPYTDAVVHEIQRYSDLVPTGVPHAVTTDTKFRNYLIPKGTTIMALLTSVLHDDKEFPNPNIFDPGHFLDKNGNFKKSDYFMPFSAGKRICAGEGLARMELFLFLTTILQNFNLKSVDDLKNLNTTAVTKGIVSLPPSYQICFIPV
Chain of CYP2E1 (P05181 whole entry): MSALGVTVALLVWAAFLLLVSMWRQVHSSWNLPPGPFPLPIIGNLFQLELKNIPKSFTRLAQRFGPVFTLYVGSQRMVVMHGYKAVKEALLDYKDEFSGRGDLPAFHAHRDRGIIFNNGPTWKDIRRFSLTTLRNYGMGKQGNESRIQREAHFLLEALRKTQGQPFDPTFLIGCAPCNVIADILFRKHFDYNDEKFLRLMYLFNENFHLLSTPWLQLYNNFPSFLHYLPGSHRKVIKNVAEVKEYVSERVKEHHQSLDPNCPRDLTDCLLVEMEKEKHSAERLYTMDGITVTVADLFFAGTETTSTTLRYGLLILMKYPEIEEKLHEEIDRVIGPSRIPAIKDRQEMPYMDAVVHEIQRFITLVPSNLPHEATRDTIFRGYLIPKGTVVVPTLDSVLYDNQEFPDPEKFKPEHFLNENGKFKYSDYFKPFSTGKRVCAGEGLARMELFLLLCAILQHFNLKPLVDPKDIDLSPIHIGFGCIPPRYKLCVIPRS
T3 sequence (P08183 whole entry): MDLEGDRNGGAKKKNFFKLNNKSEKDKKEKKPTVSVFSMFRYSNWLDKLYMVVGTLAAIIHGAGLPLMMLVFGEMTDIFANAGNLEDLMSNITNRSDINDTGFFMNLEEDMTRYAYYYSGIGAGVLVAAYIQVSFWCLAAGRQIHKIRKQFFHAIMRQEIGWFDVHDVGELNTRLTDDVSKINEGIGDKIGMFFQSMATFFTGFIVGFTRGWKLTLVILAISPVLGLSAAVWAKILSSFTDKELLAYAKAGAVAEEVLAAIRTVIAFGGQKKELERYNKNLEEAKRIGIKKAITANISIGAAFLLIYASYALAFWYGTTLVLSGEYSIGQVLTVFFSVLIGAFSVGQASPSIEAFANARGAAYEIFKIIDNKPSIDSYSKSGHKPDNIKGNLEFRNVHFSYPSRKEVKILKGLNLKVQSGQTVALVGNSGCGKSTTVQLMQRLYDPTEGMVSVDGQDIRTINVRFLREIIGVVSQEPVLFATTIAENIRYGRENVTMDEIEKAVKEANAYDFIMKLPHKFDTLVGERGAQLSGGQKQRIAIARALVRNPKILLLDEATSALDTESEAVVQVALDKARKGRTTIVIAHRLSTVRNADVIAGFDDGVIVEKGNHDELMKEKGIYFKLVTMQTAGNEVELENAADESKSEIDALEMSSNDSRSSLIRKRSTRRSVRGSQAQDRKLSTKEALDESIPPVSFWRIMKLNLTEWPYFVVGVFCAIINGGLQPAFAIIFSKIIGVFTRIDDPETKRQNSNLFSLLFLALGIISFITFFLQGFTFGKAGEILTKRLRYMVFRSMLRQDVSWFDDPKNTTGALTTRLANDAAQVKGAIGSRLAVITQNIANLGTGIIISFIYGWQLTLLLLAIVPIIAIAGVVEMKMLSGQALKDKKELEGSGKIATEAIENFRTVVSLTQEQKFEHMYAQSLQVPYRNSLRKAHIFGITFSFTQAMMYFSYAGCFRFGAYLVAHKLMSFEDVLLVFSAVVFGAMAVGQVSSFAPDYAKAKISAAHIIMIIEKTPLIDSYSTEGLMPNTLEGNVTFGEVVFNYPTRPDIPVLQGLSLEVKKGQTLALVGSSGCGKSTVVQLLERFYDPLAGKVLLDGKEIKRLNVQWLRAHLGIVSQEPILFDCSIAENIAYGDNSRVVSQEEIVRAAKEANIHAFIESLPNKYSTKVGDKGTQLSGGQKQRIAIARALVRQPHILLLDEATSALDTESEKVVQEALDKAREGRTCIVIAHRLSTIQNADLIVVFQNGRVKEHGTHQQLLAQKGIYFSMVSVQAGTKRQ

In the case of `CC[C@H](C)[C@@H]([C@@H](CC(=O)N1CCC[C@H]1[C@H](OC)[C@@H](C)C(=O)N[C@H](C)[C@@H](O)c1ccccc1)OC)N(C)C(=O)[C@@H](NC(=O)[C@@H](NC)C(C)C)C(C)C` [MMAE, monomethyl auristatin E] (H-[NMeV]V[Dil][Dolaproine]-X1), the “steady-state concentrations reached after” value [1] is given as 1 treatment cycle, the “exposure (AUC) in mild, moderate or severe renal impairment compared to normal renal function” value [1] is given as “No significant differences” and the elimination half-life [1] is given as 57.6 h. The “accumulation following repeat administration of enfortumab” value ([1]; in vivo) was “minimal accumulation”, the “time until which plasma concentrations increased after enfortumab dosing” value ([1]; in vivo) was roughly 2 days and the “mean clearance (CL)” value [1] was 2.7 L/h. For the same compound, the “AUC increase in patients with mild hepatic impairment compared to normal hepatic function” value ([1]; population PK, n=31) was 48%.

With `COCCNCc1ccc(-c2cc3nccc(Oc4ccc(NC(=O)C5(C(=O)Nc6ccc(F)cc6)CC5)cc4F)c3s2)nc1` [sitravatinib, N-(3-Fluoro-4-(2-(5-((2-methoxyethylamino)methyl)pyridin-2-yl)thieno[3,2-b]pyridin-7-yloxy)phenyl)-N-(4-fluorophenyl)cyclopropane-1,1-dicarboxamide] the IC50 (hERG) was 600 nM, the vascular pressures (in vivo) was “Minor increases” and the concentration at 6 hr (in vivo; 4 mg/kg) was 72 ng/mL. The “neurological functional observation battery and respiratory evaluations (tidal volume, respiration rate, minute volume)” value [2] was “did not reveal any sitravatinib related effects”, the permeability classification (Caco-2 cell lines) was “highly permeable” and the “substrate of P-gp” value (P-glycoprotein (P-gp)) was “not a substrate”. The “substrate of BCRP” value [3] was “not a substrate”, the IC50 (P-gp) was 838 nM and the IC50 (BCRP) was 1510 nM. The “bound to human plasma proteins” value (human plasma proteins) was 98.6%, the “CYP enzymes involved in metabolism” value (cytochrome P-450) was “multiple enzymes, including CYP 1A2, 2A6, 2B6, 2C8, 2C9, 2D6, 2E1, and 3A4 are involved” and the IC50 (CYP2C8) was 2900 nM. It also gave an IC50 (CYP2C9) of 11000 nM, an IC50 (CYP2C19) of 10000 nM and an IC50 (CYP2D6) of 1900 nM. The IC50 (CYP2B6) was greater than 20000 nM, the inhibition at 20 µM (CYP2B6; human, highest concentration evaluated (20 μM)) was roughly 50% and the “direct inhibition of CYP1A2” value (CYP1A2) was “little or no evidence”. The “direct inhibition of CYP2A6” value (CYP2A6) was “little or no evidence”, the “direct inhibition of CYP2E1” value (CYP2E1) was “little or no evidence” and the “time- or metabolism-dependent inhibition of any of the CYP enzymes evaluated” value (CYP enzymes) was “little or no evidence”. The “expression of PD-L1 on tumor cells” value (PD-L1 on tumor cells) was “increase expression of PD-L1”, the “systemic MDSCs” value [4] was “reduces the number” and the “systemic/spleen CD4+ and CD8+ T lymphocytes” value [4] was “increases the proliferation and fraction”. The “dose proportionality of Cmax and AUC” value ([5]; doses up to 200 mg) was “dose proportional”, the half-life ([5]; human, in vivo, oral administration, read-out: mean elimination half life) was 42 to 58 h and the “inhibition of kinase activity” value ([6]; biochemical assays) was “potent, concentration-dependent inhibition”. The “potency against intended clinical targets” value ([6]; generally) was “less than 0.1 μM”, the “inhibition of a closely related spectrum of tyrosine kinases” value [7] was “potent inhibition” and the “anti-tumor activity in human xenograft tumor models” value [8] was “anti tumor efficacy”. For the same compound, the “anti-tumor activity in human xenograft tumor models” value ([8]; listed as Sitravatinib) was “tumor regression”, the “phosphorylation and kinase dependent function” value (target RTKs [9]) was “inhibited phosphorylation and kinase dependent function” and the “oncogenic functions associated with target RTKs” value (target RTKs [10]) was “inhibited oncogenic functions”.

For “enfortumab: Nectin-4 directed ADC: fully human anti-Nectin-4 IgG1 kappa antibody (AGS-22C3) conjugated to MMAE via protease-cleavable maleimidocaproyl valine-citrulline linker”, the “steady-state concentrations reached after” value [1] is listed as 1 treatment cycle, the “exposure (AUC) in mild, moderate or severe renal impairment compared to normal renal function” value [1] is listed as “No significant differences” and the “dose proportionality of PK” value ([1]; 0.5 to 1.25 mg/kg, days 1, 8, 15 of 28-day cycle) is listed as “linear dose-proportional PK”. For the same compound, the elimination half-life [1] was 81.6 h, the “estimated mean volume of distribution at steady state (Vss)” value ([1]; following administration of enfortumab) was 11 L and the “accumulation following repeat administration of enfortumab” value ([1]; in vivo) was “minimal accumulation”. For the same compound, the “time of peak concentrations” value ([1]; intravenous infusion) was “end of infusion”, the “mean clearance (CL)” value [1] was 0.10 L/h and the “differences in pharmacokinetics based on age, sex, or race/ethnicity” value ([1]; population PK) was “no clinically significant differences”. For the same compound, the complete response rate (Urothelial Carcinoma [11]) was 12%, the “median DOR” value (Urothelial Carcinoma [11]) was 7.6 months and the median overall survival (Urothelial Carcinoma [11]) was 11.7 months. For the same compound, the “overall ORR as confirmed by central review” value (“overall ORR as confirmed” for short) (Urothelial Carcinoma [11]) was 44%, the “overall ORR as confirmed” value (Urothelial Carcinoma [12]; EV-103 (pembrolizumab and enfortumab used in combination)) was 73% and the “median DOR” value (Urothelial Carcinoma [12]; EV-103, median follow-up 10.4 months) was “not reached”. The “12-month overall survival rate” value (Urothelial Carcinoma [12]; EV-103) was 82%, the complete response rate (Urothelial Carcinoma [12]; EV-103) was 16% and the median overall survival (Urothelial Carcinoma [12]; EV-103) was “not reached”. The “affinity of binding to cells that express Nectin-4” value (Nectin-4) was “high affinity”.

For “pembrolizumab: humanized monoclonal IgG4 kappa antibody that blocks the interaction between PD-1 and its ligands, PD-L1 and PD-L2”, the “steady-state exposure versus dose” value ([13]; 2 to 10 mg/kg Q3W) is listed as “increased dose proportionally”, the systemic accumulation ([13]; Q3W regimen) is listed as “approximately 2.1 fold” and the “geometric mean clearance (CL)” value ([13]; population PK, 2993 patients with various cancers) is listed as 195 mL/day. The “geometric mean volume of distribution at steady state (Vss)” value ([13]; population PK) was 6.0 L, the “OS versus chemotherapy in subgroups” value (Urothelial Carcinoma [14]; KEYNOTE-045, all subgroups examined) was “OS benefit over chemotherapy” and the “ORR as confirmed by central review” value (Urothelial Carcinoma [14]; KEYNOTE-045, patients with CPS≥10) was 20%. The “overall ORR as confirmed” value (Urothelial Carcinoma [14]; KEYNOTE-045, pembrolizumab group) was 21%, the “median DOR” value (Urothelial Carcinoma [14]; KEYNOTE-045) was “not reached” and the median overall survival (Urothelial Carcinoma [14]; KEYNOTE-045) was 10.1 months. The “median DOR” value (Urothelial Carcinoma [15]; [16]) was 30.1 months, the “overall ORR as confirmed” value (Urothelial Carcinoma [15]; [16]) was 29% and the median overall survival (Urothelial Carcinoma [15]; KEYNOTE-052, overall) was 11.3 months. The “ORR as confirmed by central review” value (Urothelial Carcinoma [15]; [17]) was 47%, the “median DOR” value (Urothelial Carcinoma [15]; [17]) was “not reached” and the median overall survival (Urothelial Carcinoma [15]; [17]) was 18.5 months.
